Read-outs that look alike come from different tables or passages of the source.
Experiments:
PAF = test: PAF-induced bronchospasm in guinea pigs; parameters: species or system guinea pig (male Hartley); details: Cavia porcellus, read-out: PAF Agonist Bronchospasm (in Vivo) % Inhibition
Histamine = test: Histamine-induced bronchospasm in guinea pigs; type: in vivo, guinea pig (male Hartley); details: oral, histamine 10 ug/kg i.v.
Procedure: Male Hartley guinea pigs (450-550 g) were obtained from Charles River Breeding Laboratories. The animals were fasted overnight and the following day were anesthetized with 0.9 ml/kg i.p. of dialurethane (containing 0.1 g/ml diallylbarbituric acid, 0.4 g/ml ethylurea and 0.4 g/ml urethane). The left jugular vein was cannulated for the administration of compounds. The trachea was cannulated and the animals were ventilated by a rodent respirator at 55 strokes/min. with a stroke volume of 4 ml. A side arm to the tracheal cannula was connected to a pressure transducer to obtain a continuous measure of inflation pressure. Bronchoconstriction was measured as the percent increase in inflation pressure that peaked within 5 min. after challenge with spasmogen. […] Each animal was challenged with only a single spasmogen. The effect of a compound on the bronchospasm is expressed as a percent inhibition of the increase in inflation pressure compared to the increase in a control group.

[1] = test system: PAF-induced platelet aggregation (human platelet-rich plasma); test: PAF-induced platelet aggregation (in vitro); type: cell-based; details: PAF 1-5×10^-8 M, read-out: PAF Antagonism (in vitro) IC50
Procedure: Platelet-activating factor (PAF) causes aggregation of platelets by a receptor-mediated mechanism. Therefore, PAF-induced platelet aggregation provides a simple and convenient assay to screen compounds for PAF antagonism.
Blood was centrifuged at 110× g for 15 min. and the supernatant platelet-rich plasma (PRP) carefully transferred into a polypropylene tube. Platelet-poor-plasma (PPP) was prepared by centrifuging PRP at 12,000× g for 2 min. (Beckman Microfuge B). PRP was used within 3 hr. of drawing the blood.
PAF was dissolved in chloroform:methanol (1:1, v/v) at a concentration of 2 mg/ml and stored at -70° C. An aliquot of this solution was transferred to a polypropylene tube and dried under a flow of nitrogen gas. […] This stock solution was further diluted to appropriate concentrations in Hepes-saline-BSA buffer. Collagen (Sigma) and adenosine diphosphate (ADP) (Sigma) were purchased as solutions. Test compounds were initially dissolved in dimethyl sulfoxide (DMSO) at a concentration of 50 mM and then further diluted in Hepes-saline-BSA buffer to achieve appropriate concentrations.
When an aggregating agent such as PAF is added to PRP, platelets aggregate. An aggregometer quantifies this aggregation by measuring and comparing light (infra-red) transmission through PPP and PRP. Aggregation assays were performed using a dual-channel aggregometer (Model 440, Chrono-Log Corp., Havertown, Pa.). PRP (0.45 ml) in aggregometer cuvettes was continually stirred (37° C.). […] Incubations were continued until the increase in light transmission reached a maximum (usually 2 min.). This increase in light transmission reflecting platlet aggregation is transmitted to a computer by the Chrono-Log model 810 AGGRO/LINK interface. The AGGRO/LINK calculates the slope of transmission change, thus providing the rate of aggregation. Values for inhibition were calculated by comparing rates of aggregation obtained in the absence and the presence of the compound. For each experiment, a standard PAF antagonist such as 8-chloro-6,11-dihydro-11-(1-acetyl-4-piperidylidene)-5H-benzo[5,6]cyclohepta[1,2-b]pyridine was used as a positive control.
Compounds that inhibit PAF-induced aggregation were tested against several other aggregating agents including collagen (0.2 mg/ml) and ADP (2 μM).

SMILES | IC50 [1] | inhibition in vivo at 3 mg/kg (PAF; oral, PAF 0.4 μg/kg i.v.) | Histamine Agonist Bronchospasm (in Vivo) % Inhibition (Histamine; 1 mg/kg) | further results
[O-][n+]1ccc(CN2CCN(C3c4ccc(Cl)cc4OCc4cccnc43)CC2)cc1 (racemic) [Compound 9] | 1.7 µM | 22% |  | 
CCOC(=O)N1CCC(=C2c3ccc(Cl)cc3CCc3cccnc32)CC1 [Compound 1, reference compound] |  |  | > 50% | inhibition in vivo at 10 mg/kg (PAF; po): < 50%
[O-][n+]1ccc(CN2CCC(=C3c4ccc(Cl)cc4CCc4cccnc43)CC2)cc1 [Compound 4] | 4.1 µM | 35% | 96% | 
[O-][n+]1ccc(CN2CCC(=C3c4ccccc4C=Cc4ccccc43)CC2)cc1 [Compound 5] | 7.4 µM |  |  | inhibition in vivo at 10 mg/kg (PAF; oral, 10 mg/kg, PAF 0.4 μg/kg i.v.): 15%
[O-][n+]1ccc(CN2CCC(=C3c4ccccc4Oc4cccnc43)CC2)cc1 [Compound 10] | 8.1 µM |  |  | 

Second part, led by results:

IC50 [1] | SMILES | inhibition in vivo at 3 mg/kg (PAF; oral, PAF 0.4 μg/kg i.v.) | Histamine Agonist Bronchospasm (in Vivo) % Inhibition (Histamine; 1 mg/kg) | further results
0.71 µM | [O-][n+]1ccc(CN2CCN(C3c4ccc(Cl)cc4CCc4cccnc43)CC2)cc1 (racemic) [Compound 7] | 81% |  | Histamine Agonist Bronchospasm (in Vivo) % Inhibition (Histamine; 3 mg/kg): 100%
0.61 µM | CC(=O)N1CCC(=C2c3ccc(Cl)cc3CCc3cccnc32)CC1 [Compound 2, reference compound] |  |  | inhibition in vivo at 5 mg/kg (PAF; oral, PAF 0.4 μg/kg i.v.): 59%; Histamine Agonist Bronchospasm (in Vivo) % Inhibition (Histamine; 3 mg/kg): 49%
7.3 µM | Clc1ccc2c(c1)CCc1cccnc1C2=C1CCN(Cc2ccncc2)CC1 [Compound 3] | 32% |  | 
3.4 µM | [O-][n+]1ccc(CN2CCC(=C3c4ccccc4CCc4ccccc43)CC2)cc1 [Compound 6] | 0% |  | 
1 µM | [O-][n+]1ccc(CN2CCC(=C3c4ccc(Cl)cc4SCc4cccnc43)CC2)cc1 [Compound 8] |  | 83% | inhibition in vivo at 5 mg/kg (PAF; oral, PAF 0.4 μg/kg i.v.): 67%

From US5422351A, “Bis-benzo or benzopyrido cyclohepta piperidene, piperidylidene and piperazine compounds, compositions and methods of use” (Schering Corporation, priority 1992, dated 1995)
